Data published in publication PMC12169608, “Peptidomimetic Phenoxymethyl Ketone Warheads as Potent Dual-Mode Inhibitors against SARS-CoV‑2 M^pro and Cathepsin” (Journal of Medicinal Chemistry, 2025).
Read-outs that look alike come from different tables or passages of the source.

How the values were obtained:
[1] = target: mouse cathepsin L (mCTSL) (Mus musculus, UniProt P06797); experiment: mCTSL biochemical assay; conditions: read-out: pIC50 (mouse CTSL) (converted)
[2] = Hamster hepatocyte stability; conditions: cryopreserved hepatocytes; for half-life at 2 h, 2 µM: t1/2 (hamster hepatocytes), without ritonavir
[3] = target: human cathepsin B (hCTSB) (Homo sapiens, UniProt P07858); experiment: hCTSB biochemical assay
in vitro [4] = conditions: human, microsomes, pH 7.4
Neutrophil Elastase 2 = target: T1, Neutrophil Elastase 2 (Homo sapiens, UniProt P08246); experiment: Protease panel: Neutrophil Elastase 2; type: biochemical
T1 construct: neutrophils; tissue Eurofins Discovery (assay service); host or cells: human neutrophils
T1 sequence (P08246 30-267): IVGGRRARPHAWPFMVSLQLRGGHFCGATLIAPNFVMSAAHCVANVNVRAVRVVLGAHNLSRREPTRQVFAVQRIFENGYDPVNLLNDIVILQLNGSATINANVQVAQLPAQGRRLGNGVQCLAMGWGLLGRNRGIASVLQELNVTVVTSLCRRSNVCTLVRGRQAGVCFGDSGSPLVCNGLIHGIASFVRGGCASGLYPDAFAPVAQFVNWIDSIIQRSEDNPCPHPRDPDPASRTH

SARS-CoV-2 = experiment: microbe, parasite or virus in culture; type: cell-based
[5] = Mouse hepatocyte stability; conditions: mouse, cryopreserved hepatocytes
Caspase 2 = target: T2, Caspase 2 (Homo sapiens, UniProt P42575); experiment: Protease panel: Caspase 2; type: biochemical
T2 construct: purchased Eurofins Discovery (assay service); host or cells: E. coli
T2 sequence (P42575 170-325 limits assumed): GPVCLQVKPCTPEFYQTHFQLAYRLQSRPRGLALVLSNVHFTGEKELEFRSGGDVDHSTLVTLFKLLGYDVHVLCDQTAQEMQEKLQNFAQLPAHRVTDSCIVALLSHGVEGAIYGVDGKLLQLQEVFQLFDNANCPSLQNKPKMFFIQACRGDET
T2 sequence (P42575 348-452 limits assumed): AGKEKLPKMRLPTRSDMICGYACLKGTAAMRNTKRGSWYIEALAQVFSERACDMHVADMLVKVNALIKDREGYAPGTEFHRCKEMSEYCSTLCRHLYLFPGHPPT

[6] = test system: luciferase-expressing VSV (ΔG) pseudotyped with Spike from SARS-CoV-2; experiment: microbe, parasite or virus in culture; type: cell-based; conditions: Vesicular stomatitis virus, Vero C1008, read-out: Entry reporter assay pEC50 (converted)
Cathepsin D = target: T3, Cathepsin D (Homo sapiens, UniProt P07339); experiment: Protease panel: Cathepsin D; type: biochemical
T3 construct: Human liver; tissue Eurofins Discovery (assay service); host or cells: human liver

in vitro [7] = conditions: African green monkey
in vitro [8] = conditions: hamster, microsomes, pH 7.4
[9] = target: T4, human cathepsin L (hCTSL) (Homo sapiens, UniProt P07711); experiment: hCTSL biochemical assay
T4 construct: purchased R&D Systems

[10] = 3 h, 2 µM
physchem = conditions: pH 7.4
in vitro [11] = conditions: mouse, plasma, mouse plasma protein binding
trypsin = experiment: Protease panel: trypsin
in vitro [12] = conditions: hamster, hepatocytes; for hepatocyte CLint at 2 h, 4 µM: CLint (hamster hepatocytes + ritonavir 4:1); for hepatocyte CLint at 2 h, 2 µM: CLint (hamster hepatocytes)
hamster CTSL = hamster CTSL (Mesocricetus auratus, UniProt Q812A7); experiment: hamster CTSL biochemical assay
[13] = hamster, in vivo, ip, 100 mg/kg
[14] = Severe acute respiratory syndrome coronavirus 2, Vero C1008, read-out: SARS-CoV-2 CPE reduction assay pEC50 (converted)
[15] = % remaining at 120 min (hamster hepatocytes, compound/ritonavir 1:1)
[16] = % remaining at 120 min (hamster hepatocytes, compound/ritonavir 2:1)
[17] = CLint (hamster hepatocytes, compound/ritonavir 1:1)
[18] = CLint (hamster hepatocytes, compound/ritonavir 2:1)
[19] = t1/2 (hamster hepatocytes, compound/ritonavir 1:1)
[20] = t1/2 (hamster hepatocytes, compound/ritonavir 2:1)

T4 sequence (P07711 114-333): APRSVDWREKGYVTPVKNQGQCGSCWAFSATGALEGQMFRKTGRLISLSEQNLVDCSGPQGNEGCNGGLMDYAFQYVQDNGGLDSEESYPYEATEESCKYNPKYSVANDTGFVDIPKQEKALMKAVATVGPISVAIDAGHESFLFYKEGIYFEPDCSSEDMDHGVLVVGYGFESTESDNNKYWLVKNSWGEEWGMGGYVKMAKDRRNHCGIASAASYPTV
mouse cathepsin L (mCTSL), sequence (P06797 114-334): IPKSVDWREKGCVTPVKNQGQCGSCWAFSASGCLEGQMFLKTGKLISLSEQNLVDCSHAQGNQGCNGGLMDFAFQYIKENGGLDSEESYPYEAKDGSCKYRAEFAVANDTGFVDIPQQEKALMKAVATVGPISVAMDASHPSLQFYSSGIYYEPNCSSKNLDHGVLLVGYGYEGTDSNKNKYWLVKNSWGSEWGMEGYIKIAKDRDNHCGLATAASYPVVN
T3 sequence (P07339 65-412): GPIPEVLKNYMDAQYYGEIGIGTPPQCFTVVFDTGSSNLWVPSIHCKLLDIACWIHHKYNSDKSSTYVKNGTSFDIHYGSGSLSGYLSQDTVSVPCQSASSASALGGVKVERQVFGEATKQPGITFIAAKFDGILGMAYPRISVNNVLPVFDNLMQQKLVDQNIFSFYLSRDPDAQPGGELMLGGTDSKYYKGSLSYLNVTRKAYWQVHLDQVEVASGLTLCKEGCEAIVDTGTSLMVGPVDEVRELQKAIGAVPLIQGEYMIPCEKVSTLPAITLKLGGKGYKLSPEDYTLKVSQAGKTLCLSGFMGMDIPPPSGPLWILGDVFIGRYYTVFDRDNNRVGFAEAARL
hamster CTSL, sequence (Q812A7 entry or part of it): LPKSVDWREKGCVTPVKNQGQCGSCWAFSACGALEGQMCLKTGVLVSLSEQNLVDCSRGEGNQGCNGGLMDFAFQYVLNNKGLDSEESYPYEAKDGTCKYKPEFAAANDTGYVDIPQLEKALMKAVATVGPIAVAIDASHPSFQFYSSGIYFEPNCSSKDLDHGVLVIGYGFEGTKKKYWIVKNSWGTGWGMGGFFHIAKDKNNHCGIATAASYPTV

Row | SMILES | IC50 [1] | half-life at 2 h, 2 µM [2] | hCTSB biochemical assay pIC50 [3] | microsomal CLint (in vitro [4]) | remaining at 1 h (in vitro [4]) | inhibition at 10 µM (Neutrophil Elastase 2) | EC50 (SARS-CoV-2; [14]) | half-life at 1 µM [5] | inhibition at 10 µM (Caspase 2) | EC50 [6] | inhibition at 10 µM (Cathepsin D) | CC50 (in vitro [7]) | microsomal CLint at 1 µM (in vitro [8]) | remaining at 1 h, 1 µM (in vitro [8]) | hCTSL biochemical assay pIC50 [9] | mouse plasma protein binding, fraction bound (Fb) [10] | logD at 1 h (physchem) | fraction unbound at 3 h, 2 µM (in vitro [11]; fraction bound (Fb)) | fraction unbound at 3 h, 2 µM (in vitro [11]; fraction unbound (Fu)) | Trypsin inhibition at 10 μM (trypsin) | further results
1 | COc1cccc2[nH]c(C(=O)N[C@@H](Cc3cccc(F)c3)C(=O)N[C@@H](C[C@@H]3CCNC3=O)C(=O)COc3c(F)c(F)c(CO)c(F)c3F)cc12 [compound 1, N-((S)-3-(3-Fluorophenyl)-1-oxo-1-(((S)-3-oxo-1-((S)-2-oxopyrrolidin-3-yl)-4-(2,3,5,6-tetrafluoro-4-(hydroxymethyl)phenoxy)butan-2-yl)amino)propan-2-yl)-4-methoxy-1H-indole-2-carboxamide] | 0.0832 µM | 7.9 min | 6.36 | 350 µL/min/mg | 0% | 2% | 0.129 µM | 9.3 min | 11% | 2.51 µM | 8% | > 1 µM | 2370 µL/min/mg | 0% | 7.54 | 98.06% | 1.65 | 0.0194 | 0.0194 | -3.4 ± 9.0% | EC50 (SARS-CoV-2; Severe acute respiratory syndrome coronavirus 2, Vero C1008, read-out: EC50 (CPE)): 0.13 µM; remaining at 2 h, 1 µM (in vitro [12]; [15]): 2.51%; remaining at 2 h, 1 µM (in vitro [12]; [16]): 0.56%; hepatocyte CLint at 2 h, 4 µM (in vitro [12]): 77.1 µL/min/1e6 cells; hepatocyte CLint at 2 h, 2 µM (in vitro [12]): 87.6 µL/min/1e6 cells; hepatocyte CLint at 1 µM (in vitro [12]; [17]): 31.4 µL/min/1e6 cells; hepatocyte CLint at 1 µM (in vitro [12]; [18]): 48.1 µL/min/1e6 cells; half-life at 2 h, 4 µM (in vitro [12]; t1/2 (hamster hepatocytes + ritonavir 4:1)): 9 min; half-life at 1 µM (in vitro [12]; [19]): 22.1 min; half-life at 1 µM (in vitro [12]; [20]): 14.4 min; pIC50 (hamster CTSL) (hamster CTSL): 8.34 ± 0.09; clinical signs upon intraperitoneal dosing [13]: no clinical signs have been observed
2 | CC(C)(O)c1c(F)c(F)c(OCC(=O)[C@H](C[C@@H]2CCNC2=O)NC(=O)[C@@H]2[C@@H]3[C@H](CN2C(=O)[C@@H](NC(=O)C(F)(F)F)C(C)(C)C)C3(C)C)c(F)c1F [compound 14, (1R,2S,5S)-3-((S)-3,3-Dimethyl-2-(2,2,2-trifluoroacetamido)butanoyl)-6,6-dimethyl-N-((S)-3-oxo-1-((S)-2-oxopyrrolidin-3-yl)-4-(2,3,5,6-tetrafluoro-4-(2-hydroxypropan-2-yl)phenoxy)butan-2-yl)-3-azabicyclo[3.1.0]hexane-2-carboxamide] | > 50.1 µM | 11.2 min | < 4.30 | 40 µL/min/mg | 30.2% | 4% | 0.0398 µM | 15.5 min | 7% | > 30.2 µM | -23% | > 0.501 µM | 377 µL/min/mg | 0.1% | < 4.30 | 99.24% | 2.52 | 0.0076 | 0.0076 | 10.2 ± 3.3% | half-life at 1 µM ([2]; with ritonavir 0.25 µM (compound/ritonavir 4:1), t1/2 (hamster hepatocytes + ritonavir 4:1), compound/ritonavir 4:1): 15.5 min; hCTSB activity (in words) ([3]; biochemical assay): no hCTSL and hCTSB activity was observed; hCTSL activity (in words) ([9]; biochemical assay): no hCTSL and hCTSB activity was observed; remaining at 2 h, 1 µM (in vitro [12]; [15]): 28.8%; remaining at 2 h, 1 µM (in vitro [12]; [16]): 4.42%; hepatocyte CLint at 2 h, 4 µM (in vitro [12]): 44.7 µL/min/1e6 cells; hepatocyte CLint at 2 h, 2 µM (in vitro [12]): 62.1 µL/min/1e6 cells; hepatocyte CLint at 1 µM (in vitro [12]; [17]): 9.3 µL/min/1e6 cells; hepatocyte CLint at 1 µM (in vitro [12]; [18]): 25.4 µL/min/1e6 cells; half-life at 1 µM (in vitro [12]; [19]): 74.5 min; half-life at 1 µM (in vitro [12]; [20]): 27.2 min; pIC50 (hamster CTSL) (hamster CTSL): 4.67 ± 0.33; clinical signs upon intraperitoneal dosing ([13]; female, Syrian golden): the animals were found dull and lethargic 15 min up until 45 min postdosing
